US20150119410A1, “BIOMARKERS OF RESPONSE TO NAE INHIBITORS” (MILLENNIUM PHARMACEUTICALS, INC., priority 2011, published 2015)

Legend:
Test in all cases: Cell line panel 2 high-content screen
Assay type in all cases: cell-based
FADU = settings: Homo sapiens; FADU (upper aerodigestive tract); 72 hours
Description: (§1) To support clinical development and identify potential biomarkers of tumor sensitivity or resistance, two large cancer cell line panels (Panel 1, N=653 (McDermott et al. (2007) PNAS 104:19936-19941); Panel 2, N=240 (O'Day et al. (2010) Fourth AACR International Conference on Molecular Diagnostics in Cancer Therapeutic Development)) were treated with MLN4924 and cell viability data (IC50, EC50, and POC—Percentage of Control) were generated.
(§2) Panel 2 (Ricerca Biosciences, Inc., Bothell, Wash.). MLN4924 was added in half-log dilutions for 10 concentrations and treated for 72 hours. High-content cell screening by fluorescence microscopy included image analysis to generate several types of data. Results included EC50 values (after measurement of cell numbers, the EC50 concentration was calculated from the inflection point of a curve of percent of control (POC) against log of MLN4924 concentration), IC50 values (from the POC-log MLN4924 plot, IC50 is the concentration at 50% maximal possible response), apoptosis (measurement of activation of caspase 3 plotted against log of MLN4924 concentration, determined as the concentration for >5 fold induction), and mitotic activity (determined by measuring the fold increase of phospho-histone 3). A comparison of EC50 to IC50 (FIG. 3) allowed assignment of cell lines to sensitive, insensitive or resistant. Final identification of a cell line as sensitive or resistant was based on the EC50 values. The cutoff for sensitivity is a median EC50 of less than the median value of all POC's recorded in the panel (<0.36), borderline sensitivity was associated with median EC50 of 0.36 to 1.67 and insensitive or resistant cell lines were identified by EC50 greater than the 3rd quartile of all POC's in the panel (>1.67).

T84 = settings: Homo sapiens; T84 (intestine); 72 hours
Description: as §1, §2

YAPC = settings: Homo sapiens; YAPC (pancreas); 72 hours
Description: as §1, §2

CAPAN-1 = settings: Homo sapiens; CAPAN-1 (pancreas); 72 hours
Description: as §1, §2

NClH747 = NClH747 (intestine); 72 hours
Description: as §1, §2

CAL-27 = settings: Homo sapiens; CAL-27 (upper aerodigestive tract); 72 hours
Description: as §1, §2

SW954 = SW954 (vulva)
Description: as §1, §2

CFPAC-1 = settings: Homo sapiens; CFPAC-1 (pancreas); 72 hours
Description: as §1, §2

SKUT1 = settings: Homo sapiens, SK-UT-1; SKUT1 (smooth muscle); 72 hours
Description: as §1, §2

SW620 = settings: Homo sapiens, SW-620; SW620 (intestine); 72 hours
Description: as §1, §2

THP-1 = THP-1 (haematopoietic, lymphoid_tissue)
Description: as §1, §2

HT29 = settings: Homo sapiens; HT29 / HT-29 (intestine); 72 hours
Description: as §1, §2

LS-174T = settings: Homo sapiens, LS174T; LS-174T (large_intestine); 72 hours
Description: as §1, §2

HCT-15 = settings: Homo sapiens; HCT-15 (intestine); 72 hours
Description: as §1, §2

LS1034 = settings: Homo sapiens, LS-1034; LS1034 (intestine); 72 hours
Description: as §1, §2

NCl-H520 = NCl-H520 (lung NSCLC); 72 hours
Description: as §1, §2

CAL-62 = settings: Homo sapiens; CAL-62 (thyroid); 72 hours
Description: as §1, §2

COLO-205 = settings: Homo sapiens; COLO-205 (intestine); 72 hours
Description: as §1, §2

SW1417 = settings: Homo sapiens; SW1417 (intestine); 72 hours
Description: as §1, §2

SK-OV-3 = settings: Homo sapiens; SK-OV-3 (ovary); 72 hours
Description: as §1, §2

MDA-MB-231 = settings: Homo sapiens; MDA-MB-231 (breast); 72 hours
Description: as §1, §2

RL95-2 = RL95-2 (endometrium)
Description: as §1, §2

ACHN = settings: Homo sapiens; ACHN (kidney); 72 hours
Description: as §1, §2

647-V = settings: Homo sapiens; 647-V (urinary_tract); 72 hours
Description: as §1, §2

COLO320 HSR = settings: Homo sapiens, COLO-320-HSR; COLO320 HSR (intestine); 72 hours
Description: as §1, §2

BxPC-3 = settings: Homo sapiens; BxPC-3 (pancreas); 72 hours
Description: as §1, §2

MIA-PaCa-2 = settings: Homo sapiens; MIA-PaCa-2 (pancreas); 72 hours
Description: as §1, §2

MDA-MB-468 = settings: Homo sapiens; MDA-MB-468 (breast); 72 hours
Description: as §1, §2

Work on `NS(=O)(=O)OC[C@@H]1C[C@@H](n2ccc3c(N[C@H]4CCc5ccccc54)ncnc32)C[C@@H]1O` [MLN4924, ((1S,2S,4R)-4-{4-[(1S)-2,3-dihydro-1H-inden-1-ylamino]-7H-pyrrolo[2,3-d]pyrimidin-7-yl}-2-hydroxycyclopentyl)methyl sulphamate] yielded an EC50 (FADU) of 261 nM, an EC50 (T84) of 556 nM and an EC50 (YAPC) of 234 nM. It also gave an EC50 (CAPAN-1) of 365 nM, an EC50 (NClH747) of 2070 nM and an EC50 (CAL-27) of 139 nM. The EC50 (SW954; Homo sapiens, SW 954, 72 hours) was 324 nM, the Phenotype (SW954; SMAD4 mutant) was “sensitive (The cutoff for sensitivity is a median EC50 of less than the median value of all POC's recorded in the panel (<0.36))” and the EC50 (CFPAC-1) was 6.37 µM. The EC50 (SKUT1) was 85.6 nM, the EC50 (SW620) was 387 nM and the EC50 (THP-1; Homo sapiens, 72 hours) was 148 nM. The Phenotype (THP-1; KDM6A mutant) was “sensitive (The cutoff for sensitivity is a median EC50 of less than the median value of all POC's recorded in the panel (<0.36))”, the EC50 (HT29) was 250 nM and the EC50 (LS-174T) was 137 nM. The EC50 (HCT-15) was 836 nM, the EC50 (LS1034) was 3.76 µM and the EC50 (NCl-H520) was 261 nM. The EC50 (CAL-62) was 83.7 nM, the EC50 (COLO-205) was 92.3 nM and the EC50 (SW1417) was 9.03 µM. The EC50 (SK-OV-3) was 10 µM, the EC50 (MDA-MB-231) was 871 nM and the EC50 (RL95-2; Homo sapiens, 72 hours) was 94 nM. The Phenotype (RL95-2; NF2 mutant) was “sensitive (The cutoff for sensitivity is a median EC50 of less than the median value of all POC's recorded in the panel (<0.36))”, the EC50 (ACHN) was 652 nM and the EC50 (647-V) was 283 nM. For the same molecule, the EC50 (COLO320 HSR) was 1780 nM, the EC50 (BxPC-3) was 251 nM and the EC50 (MIA-PaCa-2) was 239 nM. It also gave an EC50 (MDA-MB-468) of 26.7 nM.
